One assay has as its system P388 leukemia. The experiment in a line: NCI tumour cell line growth inhibition, 48 h.
The next assay has as its system P388/ADR leukemia. The experiment in a line: NCI tumour cell line growth inhibition, 48 h.

Several values for one entry are separate records, joined by “and”; a condition that tells them apart may be missing. Identical values can stand only once.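 Method: 48-hour compound exposure of cells in 96-well plates, five concentrations, linear interpolation of endpoints. Abbreviation: GI50, concentration required for 50% inhibition of growth. Definition used: TGI = concentration required for complete inhibition of growth.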

On to `CCOC(=O)NC1=C(N2CC2)C(=O)C(NC(=O)OCC)=C(N2CC2)C1=O`, for which the TGI in the assay on P388 leukemia turned out to be 14 µM; in the assay with P388/ADR leukemia, 17.6 µM.
With `CC(C)[NH-].CC(C)[NH-].O.O.[Cl][Pt+2][Cl]`, in the assay on P388 leukemia, the GI50 was 6.66 µM and the TGI is 37.9 µM. In the assay with P388/ADR leukemia, the GI50 was 8.11 µM and the TGI was 59.9 µM.
In the case of `NC(=S)N/N=C/c1ccc(O)cn1`, in the assay with P388 leukemia, the TGI worked out at 8.3 µM. Also, in the assay on P388/ADR leukemia, the GI50 is 0.943 µM and 1.5 µM; the TGI is 154 µM and 24.5 µM.
As to `OC(C1CO1)C(O)C1CO1` (stereo not drawn), the TGI with P388 leukemia and in the assay on P388/ADR leukemia was 150 µM each time.
For `O=C(NCCCCCCNC(=O)n1cc(F)c(=O)[nH]c1=O)NCCCOCCOCCOCCOCCOCCOCCOCCOCCOCCOCCOCCOCCOCCOCCOCCOCCOCCOCCOCCOCCOCCCNC(=O)C(O)C(O)C(OC1OC(CO)C(O)C(O)C1O)C(O)CO` (stereo not drawn), the TGI in the assay with P388 leukemia and in the assay on P388/ADR leukemia was greater than 100 µM each time.
